Read-outs that look alike come from different tables or passages of the source.
Legend:
[1] = tested on: xxLAI strain of HIV-1; experiment: microbe, parasite or virus in culture; format: cell-based; conditions: for Fold difference in EC50, 0.1 μM MPA: control vs with 0.1 μM MPA; for Fold difference in EC50, 0.25 μM MPA: control vs with 0.25 μM MPA
Method: In this assay, cell supernatants were incubated on microelisa wells coated with antibodies to HIV-1 p24 core antigen. Subsequently, anti-HIV-1 conjugate labeled with horseradish peroxidase was added. The labeled antibody bound to the solid phase antibody/antigen complexes previously formed. Addition of the tetramethylbenzidine substrate results in blue color formation. The color turned yellow when the reaction is stopped. The plates were then analyzed on a plate reader set at 490 nm. The absorbance is a direct measurement of the amount of HIV-1 produced in each well and a decrease in color indicates decreased viral production. […] PBMC were obtained from HIV-1 negative donors by banding on Ficoll gradients, stimulated with phytohemaglutinin (PHAP) for 48 hours prior to infection with HIV-1, and infected with virus for 4 hours at 37° C. at a MOI of 0.001. […] Plates were incubated for 3 days at 37° C. The concentration of virus in each well was determined using the NEN p24 assay. Using the absorption values of the cell controls as 100% protection and drug free, virus infected cells as 0% protection, a dose response curve is generated by plotting percent protection on the Y axis and drug concentration on the X axis. From this curve, EC50 values were determined.
Compound dilutions and assay conditions were as described above.
MPA was also tested for activity against the xxLAI strain of HIV-1 in PBMCs using a p24 based Elisa assay. In this assay, cell supernatants are incubated on microelisa wells coated with antibodies to HIV-1 p24 core antigen. Subsequently, anti-HIV-1 conjugate labeled with horse radish peroxidase is added. The labeled antibody binds to the solid phase antibody/antigen complexes previously formed. Addition of the tetramethylbenzidine substrate results in blue color formation. The color turns yellow when the reaction is stopped. The plates are then analyzed on a plate reader set at 490 nm. The absorbance is a direct measurement of the amount of HIV-1 produced in each well and a decrease in color indicates decreased viral production. Dilutions of MPA were made in cell culture media in a 96 well plate, the highest concentration of MPA tested was 1 μM. PBMC were obtained from HIV-1 negative donors by banding on Ficoll gradients, stimulated with phytohemaglutinin (PHAP) for 48 hours prior to infection with HIV-1, and infected with virus for 4 hours at 37° C. at a MOI of 0.001. Infected cells were seeded into 96 well plates containing 4-fold serial dilutions of MPA. Plates were incubated for 3 days at 37° C. The concentration of virus in each well was determined using the NEN p24 assay. Using the absorption values of the cell controls as 100% protection and drug free, virus infected cells as 0% protection, a dose response curve is generated by plotting % protection on the Y axis and drug concentration on the X axis. From this curve EC50 values were determined.
Compound dilutions and assay conditions were as described above. The concentrations of MPA used were 1, 0.5, 0.25, 0.1, and 0.01 μM.

[2] = tested on: xxLAI strain of HIV-1; experiment: microbe, parasite or virus in culture; format: cell-based; conditions: for Fold difference in EC50, 0.1 μM MPA: control vs with 0.1 μM MPA
Method: Triplicate samples of compound were tested. MT2 cells were infected with xxLAI at a multiplicity of infection (MOI) of 0.03 for 3 hours at 37° C. in 5% CO2. The infected cells were plated at 3.0×10^4/well into a 96 well plated containing drug dilutions and incubated for 5 days at 37° C. in CO2. […] This method has been modified into a susceptibility assay and has been used in a variety of in vitro antiviral tests and is readily adaptable to any system with a lytic virus (Weislow, O. S., et. al. 1989). Using the absorption values of the cell controls as 100% protection and no drug, virus infected cells as 0% protection, a dose response curve is generated by plotting % protection on the Y axis and drug concentration on the X axis. From this curve EC50 values were determined.
Assays were performed in the MT2 cell line as described above in the XXT sensitivity assay section.
MPA was tested for activity against the xxLAI strain of HIV-1 in the laboratory adapted cell line MT2. Dilutions of MPA were made in cell culture media in a 96 well plate; the highest concentration tested was 1 μM. Triplicate samples of compound were tested. MT2 cells were infected with xxLAI at a multiplicity of infection (MOI) of 0.03 for 3 hours at 37° C. in 5% CO2. The infected cells were plated at 3.0×10^4/well into a 96 well plated containing drug dilutions and incubated for 5 days at 37° C. in CO2. The antiviral activity of MPA was determined using the XTT assay described above. This method has been modified into a susceptibility assay and has been used in a variety of in vitro antiviral tests and is readily adaptable to any system with a lytic virus (Weislow, O. S., et. al. 1989). Using the absorption values of the cell controls as 100% protection and no drug, virus infected cells as 0% protection, a dose response curve is generated by plotting % protection on the Y axis and drug concentration on the X axis. From this curve EC50 values were determined.
The concentrations of MPA used were 1, 0.5, 0.25, 0.1, and 0.01 μM. Assays were performed in the MT2 cell line as described in section 3.1.

[3] = PBMC, all the concentrations tested, with 0.25 μM MPA
[4] = read-out: Mean EC50, 0.01 μM MPA, PMBCs, with 0.01 μM MPA
[5] = read-out: Mean EC50, 0.1 μM MPA, PMBCs, with 0.1 μM MPA

Nc1nc(NC2CC2)c2ncn([C@H]3C=C[C@@H](CO)C3)c2n1 [Abacavir]
EC50 ([1]; Human immunodeficiency virus 1, PBMC, read-out: Mean EC50, Control, PMBCs, no MPA): 1200 nM | EC50 ([1]; Human immunodeficiency virus 1, PBMC, read-out: Mean EC50, Control, PMBCs, no RBV): 540 nM | effect of addition of 0.25 μM MPA on anti-HIV activity in PBMCs [1, 3]: completely inhibited HIV replication | effect of addition of 20 μM RBV on anti-HIV activity in PBMCs ([1]; PBMC, all the concentrations tested, with 20 μM RBV): completely inhibited HIV replication | Fold difference in EC50, 0.1 μM MPA ([1]; PBMC): 3.2 fold | Fold difference in EC50, 0.25 μM MPA ([1]; PBMC): >50 fold | Fold difference in EC50, 5 μM RBV ([1]; PBMC, control vs with 5 μM RBV): 4.9 fold | Fold difference in EC50, 10 μM RBV ([1]; PBMC, control vs with 10 μM RBV): 18 fold | Fold difference in EC50, 20 μM RBV ([1]; PBMC, control vs with 20 μM RBV): >18 fold | EC50 [1, 4]: 1100 nM | EC50 [1, 5]: 380 nM | EC50 ([1]; read-out: Mean EC50, 0.25 μM MPA, PMBCs, with 0.25 μM MPA): < 0.5 nM | EC50 ([1]; read-out: Mean EC50, 1 μM RBV, PMBCs, with 1 μM RBV): 200 nM | EC50 ([1]; read-out: Mean EC50, 5 μM RBV, PMBCs, with 5 μM RBV): 110 nM | EC50 ([1]; read-out: Mean EC50, 10 μM RBV, PMBCs, with 10 μM RBV): 30 nM | EC50 ([1]; read-out: Mean EC50, 20 μM RBV, PMBCs, with 20 μM RBV): < 30 nM | EC50 ([2]; Human immunodeficiency virus 1, MT2, read-out: Mean EC50, Control, MT2 cells, no MPA): 2400 nM | EC50 ([2]; Human immunodeficiency virus 1, MT2, read-out: Mean EC50, Control, MT2 cells, no RBV): 4700 nM | fold difference in the apparent EC50 on addition of RBV ([2]; MT2 cells, addition of RBV): less than 2 fold | Fold difference in EC50, 0.1 μM MPA ([2]; MT2 cells): 1 fold | Fold difference in EC50, 0.25 μM MPA ([2]; MT2 cells, control vs with 0.25 μM MPA (fold decrease)): 1.7 fold | Fold difference in EC50, 5 μM RBV ([2]; MT2 cells, control vs with 5 μM RBV): 0.68 fold | Fold difference in EC50, 10 μM RBV ([2]; MT2 cells, control vs with 10 μM RBV): 0.73 fold | EC50 ([2]; read-out: Mean EC50, 0.25 μM MPA, MT2 cells, with 0.25 μM MPA): 1400 nM | EC50 ([2]; read-out: Mean EC50, 5 μM RBV, MT2 cells, with 5 μM RBV): 6900 nM | EC50 ([2]; read-out: Mean EC50, 10 μM RBV, MT2 cells, with 10 μM RBV): 6400 nM | EC50 ([2]; read-out: Mean EC50, 20 μM RBV, MT2 cells, with 20 μM RBV): 5700 nM

Nc1nc(=O)n([C@@H]2CS[C@H](CO)O2)cc1F [FTC]
effect of addition of 0.25 μM MPA on anti-HIV activity in PBMCs [1, 3]: little effect | Fold difference in EC50, 0.1 μM MPA ([1]; PBMC): 1.2 fold | Fold difference in EC50, 0.25 μM MPA ([1]; PBMC): 1.8 fold | EC50 ([1]; PMBCs, no MPA, read-out: Mean EC50, Control): 11 nM | EC50 ([1]; PMBCs, with 0.25 μM MPA, read-out: Mean EC50, 0.25 μM MPA): 6 nM | EC50 [1, 4]: 8 nM | EC50 [1, 5]: 9.3 nM | Fold difference in EC50, 0.1 μM MPA ([2]; MT2 cells): 1 fold | EC50 ([2]; MT2 cells, no MPA, read-out: Mean EC50, Control): 600 nM | EC50 ([2]; MT2 cells, with 0.25 μM MPA, read-out: Mean EC50, 0.25 μM MPA): 400 nM | EC50 ([2]; read-out: Mean EC50, 0.01 μM MPA, MT2 cells, with 0.01 μM MPA): 620 nM | EC50 ([2]; read-out: Mean EC50, 0.1 μM MPA, MT2 cells, with 0.1 μM MPA): 620 nM

From US20020173491A1, “DAPD combination therapy with inosine monophosphate dehydrogenase inhibitor” (priority 2000, published 2002)
